Measurements taken from US20040024178A1, “Bacterial signal peptidase inhibitors and uses thereof” (priority 1999, published 2004).

Experiments:
E. coli leader peptidase = E. coli leader peptidase (Escherichia coli, UniProt P00803); conditions: cited from earlier work
Octanoyl-[…]OH = target: T1, Octanoyl-[…]OH
T1 chain: LTPTAKAASKIDD

Decanoyl-[…]OH = target: T2, Decanoyl-[…]OH
T2 chain: LTPTAKAASKIDD

Chain of E. coli leader peptidase (P00803 whole entry): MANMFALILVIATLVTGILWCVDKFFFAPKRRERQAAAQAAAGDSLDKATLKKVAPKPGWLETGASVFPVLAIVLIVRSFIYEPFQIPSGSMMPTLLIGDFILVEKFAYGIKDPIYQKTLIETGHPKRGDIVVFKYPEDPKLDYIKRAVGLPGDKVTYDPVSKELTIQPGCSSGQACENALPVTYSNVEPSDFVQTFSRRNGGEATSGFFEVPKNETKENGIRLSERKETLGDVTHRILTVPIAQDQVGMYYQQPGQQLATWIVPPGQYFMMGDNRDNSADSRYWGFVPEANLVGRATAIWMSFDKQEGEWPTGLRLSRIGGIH

Molecule: ALAKI
- rate of turnover (E. coli leader peptidase; Dev et al): very slow

Molecule: ASVAVATLVPMLSFAAEGDDPAK
- rate of cleavage (E. coli leader peptidase; versus parent M13 procoat protein, Dierstein and Wickner): comparable to that of the parent

B1: S. aureus SpsB signal peptidase (protein)
chain: MKKELLEWIISIAVAFVILFIVGKFIVTPYTIKGESMDPTLKDGERVAVNIIGYKTGGLEKGNVVVFHANKNDDYVKRVIGVPGDKVEYKNDTLYVNGKKQDEPYLNYNLKHKQGDYITGTFQVKDLPNANPKSNVIPKGKYLVLGDNREVSKDSRAFGLIDEDQIVGKVSFRFWPFSEFKHNFNPENTKN
- processing after 30 minutes (HPLC/MS cleavage assay) (Octanoyl-[…]OH): >80% processing after 30 minutes
- processing after 30 minutes (HPLC/MS cleavage assay) (Decanoyl-[…]OH): >80% processing after 30 minutes
